The text below walks through data of patent publication US6683096B2, “Indolylpiperidine derivatives as antihistaminic and antiallergic agents” (Almirall Prodesfarma, S.A., priority 1999, dated 2004).

One data set deals with T1, histamine-H1 receptors (Cavia porcellus, UniProt P31389).
T1 construct: performed in guinea pig cerebellum membranes; from tissue; host or cells: guinea pig cerebellum membranes
As to the kind of experiment: Histamine-H1 receptor binding assay ([3H]-mepyramine, guinea pig cerebellum membranes). Particulars: guinea pig cerebellum membranes, 0.7 nM [3H]-mepyramine; read-out: BINDING TO RECEPTOR H1 ( IC50 nM ). As for the experimental part:
(1) Histamine-H1 receptor binding assay
Briefly, the membrane suspensions (160 μg/ml) were incubated at 30° C. with 0.7 nM [^3H]- mepyramine and different concentrations of the test compounds in a final volume of 250 μl. Binding reactions were terminated by filtration after 30 min of incubation and the bound radioactivity was determined. The specific binding was measured in the presence of 10 μM of promethazine. The affinity of each test compound to the receptor was determined by using at least six different concentrations run in duplicate. IC50 values were obtained by non-linear regression by use of SAS on a DEC AXP computer.

Data set [1] concerns histamine-induced skin vascular permeability in rats. As to the kind of experiment: Histamine-induced skin vascular permeability in rats. It is filed as in vivo. As to conditions: Rattus norvegicus, po; 3 mg/Kg orally, 4 hours after administration, male Wistar rats; read-out: inhibition of the histamine-induced wheal. As for the experimental part:
(2) Histamine-induced skin vascular permeability in rats
Male Wistar rats (180-210 g) were treated orally with the test compound or vehicle. One, 4, 8 and 24 hours later, the rats were lightly anaesthetized with ether. The cutaneous reaction was induced by two intradermal injections of 50 μl of histamine (100 μg/ml) onto the back, followed by a intravenous injection of 3 ml/kg of Evan's Blue (5 mg/ml), both dissolved in saline. Sixty min later, the rats were killed by cervical dislocation and the back skin dissected free. The diameter (in millimeters) of the wheal was measured in two directions and the area was calculated.

Bounds are passed on as bounds.

T1 sequence (P31389 whole entry): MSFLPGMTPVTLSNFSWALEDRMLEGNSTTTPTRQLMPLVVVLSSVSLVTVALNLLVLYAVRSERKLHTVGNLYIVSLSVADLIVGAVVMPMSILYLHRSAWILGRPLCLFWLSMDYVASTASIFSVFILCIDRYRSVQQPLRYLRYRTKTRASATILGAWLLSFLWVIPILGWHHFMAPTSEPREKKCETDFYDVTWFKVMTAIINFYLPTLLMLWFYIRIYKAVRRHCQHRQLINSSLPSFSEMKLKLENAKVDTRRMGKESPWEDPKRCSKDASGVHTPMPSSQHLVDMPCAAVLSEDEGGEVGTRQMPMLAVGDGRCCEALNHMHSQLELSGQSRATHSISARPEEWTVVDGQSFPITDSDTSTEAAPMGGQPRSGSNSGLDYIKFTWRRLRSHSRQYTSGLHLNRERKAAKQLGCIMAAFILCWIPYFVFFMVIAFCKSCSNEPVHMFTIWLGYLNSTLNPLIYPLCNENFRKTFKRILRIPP

The term melting point denotes the temperature, or range, at which the solid turns liquid. By IC50 is commonly meant the concentration needed to halve the response being measured. As to `CCOCCn1cc(C2CCN(CCOc3ccc(C)cc3C(=O)O)CC2)c2cc(OC)ccc21` [Example 142, 2-(2-{4-[1-(2-ethoxy-ethyl)-5-methoxy-1H-indol-3-yl]-piperidin-1-yl}-ethoxy)-5-methyl-benzoic acid], the melting point fell in the range of 144 to 146 °C. In addition, the IC50 at histamine-H1 receptors was determined as 386 nM. Moreover, the inhibition in vivo at 3 mg/kg in data set [1] is over 50%.
As to `O=C(O)c1ccccc1OCCN1CCC(c2cn(CC3CC3)c3cc(F)ccc23)CC1` [Example 150, 2-{2-[4-(1-cyclopropylmethyl-6-fluoro-1H-indol-3-yl)-piperidin-1-yl]-ethoxy}-benzoic acid], the melting point was determined as 97 °C. The IC50 on histamine-H1 receptors was 121 nM. In addition, the inhibition in vivo at 3 mg/kg in data set [1] was over 50%.
The corresponding values for `O=C(O)c1ccccc1OCCN1CCC(c2cn(CC3CC3)c3ccccc23)CC1` [Example 157, 2-{2-[4-(1-cyclopropylmethyl-1H-indol-3-yl)-piperidin-1-yl]-ethoxy}-benzoic acid] are 145 to 147 °C, 140 nM and over 50%.
In the case of `O=C(O)c1cccc(CN2CCC(c3cn(CC4CC4)c4ccccc34)CC2)c1` [Example 158, 3-[4-(1-cyclopropylmethyl-1H-indol-3-yl)-piperidin-1-ylmethyl]-benzoic acid], the melting point worked out at 207 °C. Further, the IC50 on histamine-H1 receptors was found to be 104 nM. Moreover, the inhibition in vivo at 3 mg/kg in data set [1] was over 50%.
